Measurements taken from patent US20250136610A1, “CRYSTALLINE FORMS OF TRILACICLIB AND TRILACICLIB SALTS” (TEVA PHARMACEUTICALS INTERNATIONAL GMBH, priority 2022, published 2025).
Counter-ions that a name gives are not always drawn.

Columns and labels:
Format in all cases: physicochemical
[1] = Thermal stability (heating up to 100° C., XRPD); details: heating 100° C., 30 minutes
Protocol: (§1) X-ray diffraction was performed on X-Ray powder diffractometer: Bruker D8 Advance; CuKα radiation (λ=1.5418 Å); Lynx eye detector; laboratory temperature 22-25° C.; PMMA specimen holder ring with silicon low background. Prior to analysis, the samples were gently ground by means of mortar and pestle in order to obtain a fine powder. The ground sample was adjusted into a cavity of the sample holder and the surface of the sample was smoothed by means of a cover glass.
(§2) • Scan range: 2-40 degrees 2-theta; • Scan mode: continuous; • Step size: 0.05 degrees; • Time per step: 0.5 s; • Sample spin: 30 rpm; • Sample holder: PMMA specimen holder ring with silicon low background. • All X-Ray Powder Diffraction peak values are calibrated with regard to standard silicon spiking in the sample. ssNMR Method:
A sample of Trilaciclib citrate Form TCT3 was subjected to heating up to 100° C. for 30 minutes.

[2] = Storage stability at different relative humidities and temperatures, months (XRPD)
Protocol: as §1, §2
Samples of Trilaciclib citrate Form TCT3 were subjected to conditions of different relative humidities at different temperatures. XRPD analysis was performed on the samples after 2 months.
Form TCT3 of Trilaciclib citrate was also found to be stable for at least 2 months at 2-8° C. Moreover, Form TCT3 is stable for at least 3 months at room temperature and humidity.

[3] = Grinding experiments (strong grinding and solvent drop grinding, XRPD); details: 2 minutes
Protocol: as §1, §2
Samples of Trilaciclib citrate Form TCT3 were subjected to strong grinding, and to solvent drop grinding in isopropanol, ethanol and water. Grinding was carried out on the samples alone, or in the presence of ethanol or water. In these experiments, about 20 mg of the sample is placed in a mortar and ground with a pestle for 2 minutes. The solvent, when used, as added to the crystalline material before grinding, in a volume of 10 microliters.

[4] = Stability under all tested stress conditions (summary statement); details: strong grinding, pressure of 2 tons, up to 100% RH for 7 days, up to 100° C.

Result (XRPD analysis) [1]: No polymorphic conversion | time for which the form is stable ([2]; at 2-8° C.): at least 2 months | time for which the form is stable ([2]; at room temperature and humidity): at least 3 months | XRPD analysis results ([3]; solvent-drop grinding (ethanol), 10 microliters): No polymorphic conversion | XRPD analysis results ([3]; solvent-drop grinding (isopropanol), 10 microliters): No polymorphic conversion | XRPD analysis results ([3]; solvent-drop grinding (water), 10 microliters): No polymorphic conversion | XRPD analysis results ([3]; strong grinding, no solvent): No polymorphic conversion
Compound: CN1CCN(c2ccc(Nc3ncc4cc5n(c4n3)C3(CCCCC3)CNC5=O)nc2)CC1 [Trilaciclib citrate Form TCT3, Trilaciclib citrate salt]
stability under stress conditions [4]: stable under all tested stress conditions
